How the values were obtained:
[1] = test system: wheat; test: Test B pre/postemergence wheat; format: in vivo, Triticum aestivum
Procedure, shortened: (§1)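 Herbicidal effect was estimated by eye on a ten-point control scale after plants spent twelve to sixteen days in a greenhouse following soil or foliar treatment. Foliar sprays targeted plants at one to four leaves; all doses were formulated in a non-phytotoxic solvent with surfactant.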

[2] = test system: pigweed; test: Test B pre/postemergence pigweed; format: in vivo, Amaranthus retroflexus
Procedure, shortened: as §1

[3] = test system: wild oat; test: Test B pre/postemergence wild oat; format: in vivo, Avena fatua
Procedure, shortened: as §1

[4] = test system: duck salad; test: Test B flood test duck salad; format: in vivo, Heteranthera limosa
Procedure, shortened: (§2)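 Plants were grown to the 2-leaf stage before treatment with test chemical, then held in a greenhouse for twelve to sixteen days. Injury was visually rated against untreated controls on a 0–10 scale, where 0 is no effect and 10 is complete control.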

[5] = test system: soybean; test: Test B pre/postemergence soybean; format: in vivo, Glycine max
Procedure, shortened: as §1

[6] = test system: giant foxtail; test: Test B pre/postemergence giant foxtail; format: in vivo, Setaria faberii
Procedure, shortened: as §1

[7] = test system: rice; test: Test B flood test rice; format: in vivo, Oryza sativa; settings: for Rice plant response rating: Postemergence section (flood test species)
Procedure, shortened: as §2

[8] = test system: surinam grass; test: Test B pre/postemergence surinam grass; format: in vivo, Brachiaria decumbens
Procedure, shortened: as §1

[9] = test system: velvetleaf; test: Test B pre/postemergence velvetleaf; format: in vivo, Abutilon theophrasti
Procedure, shortened: as §1

[10] = test system: purple nutsedge; test: Test B pre/postemergence purple nutsedge; format: in vivo, Cyperus rotundus
Procedure, shortened: as §1

[11] = test system: cocklebur; test: Test B pre/postemergence cocklebur; format: in vivo, Xanthium strumarium
Procedure, shortened: as §1

[12] = test system: rape; test: Test B pre/postemergence rape; format: in vivo, Brassica napus
Procedure, shortened: as §1

[13] = test system: corn; test: Test B pre/postemergence corn; format: in vivo, Zea mays
Procedure, shortened: as §1

[14] = test system: smallflower flatsedge; test: Test B flood test smallflower flatsedge; format: in vivo, Cyperus difformis; settings: for S. Flatsedge plant response rating: Postemergence section (flood test species)
Procedure, shortened: as §2

[15] = test system: sugar beet; test: Test B pre/postemergence sugar beet; format: in vivo, Beta vulgaris
Procedure, shortened: as §1

[16] = Postemergence, Rate 500 g/ha, scale of 0 to 10 where 0 is no effect and 10 is complete control
[17] = Preemergence, Rate 62 g/ha, scale 0 to 10 (0 no effect, 10 complete control)
[18] = Preemergence, Rate 125 g/ha, scale of 0 to 10 where 0 is no effect and 10 is complete control
[19] = Preemergence, Rate 250 g/ha, scale 0 to 10, 0 is no effect, 10 is complete control
[20] = Preemergence, Rate 500 g/ha, scale 0 to 10, 0 is no effect, 10 is complete control
[21] = Rate 125 g/ha, Postemergence, scale 0 to 10, 0 is no effect, 10 is complete control
[22] = Postemergence, Rate 250 g/ha, scale 0 to 10, 0 is no effect, 10 is complete control
[23] = flood test species, listed under Postemergence, Rate 250 g/ha, scale 0 to 10, 0 is no effect, 10 is complete control
[24] = Rate 62 g/ha, Postemergence, scale of 0 to 10 where 0 is no effect and 10 is complete control
[25] = Rate 500 g/ha, scale of 0 to 10 where 0 is no effect and 10 is complete control
[26] = Rate 125 g/ha, scale 0 to 10, 0 is no effect, 10 is complete control

## CC(C)N(C(=O)n1oc(=O)n(CCl)c1=O)c1ccc(Cl)cc1 [Compound 422]
[1]; [16]
  Wheat plant response rating: 0
[1]; [17]
  Plant response rating, Wheat: 0
[1]; [18]
  Plant response rating, Wheat: 0
[1]; [19]
  Wheat plant response rating: 0
[1]; [20]
  Wheat plant response rating: 0
[1]; [21]
  Wheat plant response rating: 0
[2]; [22]
  Plant response rating, Redroot pigweed: 0
[2]; [16]
  Redroot pigweed plant response rating: 0
[2]; [17]
  Plant response rating, Redroot pigweed: 0
[2]; [18]
  Plant response rating, Redroot pigweed: 0
[2]; [19]
  Redroot pigweed plant response rating: 0
[2]; [20]
  Redroot pigweed plant response rating: 0
[2]; [21]
  Redroot pigweed plant response rating: 0
[3]; [16]
  Wild oats plant response rating: 0
[3]; [17]
  Plant response rating, Wild oats: 0
[3]; [18]
  Plant response rating, Wild oats: 0
[3]; [19]
  Wild oats plant response rating: 0
[3]; [20]
  Wild oats plant response rating: 3
[3]; [21]
  Wild oats plant response rating: 0
[4]; Postemergence section (flood test species), Rate 500 g/ha, scale of 0 to 10 where 0 is no effect and 10 is complete control
  Ducksalad plant response rating: 0
[4]; Rate 62 g/ha, Postemergence (flood test species), scale of 0 to 10 where 0 is no effect and 10 is complete control
  Ducksalad plant response rating: 0
[4]; Rate 125 g/ha, Postemergence section (flood test species), scale 0 to 10, 0 is no effect, 10 is complete control
  Ducksalad plant response rating: 0
[4]; [23]
  Plant response rating, Ducksalad: 0
[5]; [22]
  Plant response rating, Soybean: 3
[5]; [16]
  Soybean plant response rating: 4
[5]; [17]
  Plant response rating, Soybean: 0
[5]; [18]
  Plant response rating, Soybean: 0
[5]; [19]
  Soybean plant response rating: 0
[5]; [20]
  Soybean plant response rating: 0
[5]; [21]
  Soybean plant response rating: 3
[6]; [22]
  Plant response rating, Giant foxtail: 0
[6]; [16]
  Giant foxtail plant response rating: 0
[6]; [17]
  Plant response rating, Giant foxtail: 0
[6]; [18]
  Plant response rating, Giant foxtail: 0
[6]; [19]
  Giant foxtail plant response rating: 0
[6]; [20]
  Giant foxtail plant response rating: 0
[6]; [24]
  Giant foxtail plant response rating: 0
[6]; [21]
  Giant foxtail plant response rating: 0
[7]; [25]
  Rice plant response rating: 0
[7]; [26]
  Rice plant response rating: 0
[7]; [23]
  Plant response rating, Rice: 0
[8]; [22]
  Plant response rating, B. signalgrass: 0
[8]; [16]
  B. signalgrass plant response rating: 0
[8]; [17]
  Plant response rating, B. signalgrass: 0
[8]; [18]
  Plant response rating, B. signalgrass: 0
[8]; Preemergence, Rate 250 g/ha, scale of 0 to 10 where 0 is no effect and 10 is complete control
  B. signalgrass plant response rating: 0
[8]; Preemergence, Rate 500 g/ha, scale of 0 to 10 where 0 is no effect and 10 is complete control
  B. signalgrass plant response rating: 0
[8]; [24]
  B. signalgrass plant response rating: 0
[8]; [21]
  B. signalgrass plant response rating: 0
[9]; [22]
  Plant response rating, Velvetleaf: 0
[9]; [16]
  Velvetleaf plant response rating: 0
[9]; [17]
  Plant response rating, Velvetleaf: 0
[9]; [18]
  Plant response rating, Velvetleaf: 0
[9]; [19]
  Velvetleaf plant response rating: 0
[9]; [20]
  Velvetleaf plant response rating: 0
[9]; [21]
  Velvetleaf plant response rating: 0
[10]; [22]
  Plant response rating, Nutsedge: 0
[10]; [16]
  Nutsedge plant response rating: 0
[10]; [17]
  Plant response rating, Nutsedge: 0
[10]; [18]
  Plant response rating, Nutsedge: 0
[10]; [19]
  Nutsedge plant response rating: 0
[10]; [20]
  Nutsedge plant response rating: 0
[10]; [21]
  Nutsedge plant response rating: 0
[11]; [22]
  Plant response rating, Cocklebur: 0
[11]; [16]
  Cocklebur plant response rating: 0
[11]; [17]
  Plant response rating, Cocklebur: 0
[11]; [18]
  Plant response rating, Cocklebur: 0
[11]; [19]
  Cocklebur plant response rating: 0
[11]; [20]
  Cocklebur plant response rating: 0
[11]; [24]
  Cocklebur plant response rating: 0
[11]; [21]
  Cocklebur plant response rating: 0
[12]; [22]
  Plant response rating, Rape: 0
[12]; [16]
  Rape plant response rating: 0
[12]; [17]
  Plant response rating, Rape: 0
[12]; [18]
  Plant response rating, Rape: 0
[12]; [19]
  Rape plant response rating: 0
[12]; [20]
  Rape plant response rating: 0
[12]; [21]
  Rape plant response rating: 0
[13]; [22]
  Plant response rating, Corn: 0
[13]; [16]
  Corn plant response rating: 0
[13]; [17]
  Plant response rating, Corn: 0
[13]; [18]
  Plant response rating, Corn: 0
[13]; [19]
  Corn plant response rating: 0
[13]; [20]
  Corn plant response rating: 0
[13]; [24]
  Corn plant response rating: 0
[13]; [21]
  Corn plant response rating: 0
[14]; [25]
  S. Flatsedge plant response rating: 0
[14]; [26]
  S. Flatsedge plant response rating: 0
[14]; [23]
  Plant response rating, S. Flatsedge: 0
[15]; [22]
  Plant response rating, Sugarbeets: 0
[15]; [16]
  Sugarbeets plant response rating: 0
[15]; [17]
  Plant response rating, Sugarbeets: 0
[15]; [18]
  Plant response rating, Sugarbeets: 0
[15]; [19]
  Sugarbeets plant response rating: 0
[15]; [20]
  Sugarbeets plant response rating: 0
[15]; [21]
  Sugarbeets plant response rating: 0

Source: patent US6737383B1, “Herbicidal oxadiazolidines” (priority 1999, dated 2004)
